Assay results as given in the NIST ThermoML archive (doi:10.1021/je500079y).

Test: wn = mass fraction of the nth substance listed
Settings: 101 kPa, Liquid, Vibrating tube method

CCOS(=O)(=O)[O-].CCn1cc[n+](C)c1 [1-ethyl-3-methylimidazolium ethyl sulfate] + O=C[C@H](O)[C@@H](O)[C@H](O)[C@H](O)CO
mass density [kg/m3]
Settings | w2 = 0.046 | w2 = 0.059 | w2 = 0.097 | w2 = 0.134 | w2 = 0.154 | w2 = 0.18
278.15 K | 1260.18 | 1263.04 | 1271.43 | 1279.83 | 1284.18 | 1290.02
283.15 K | 1256.74 | 1259.61 | 1268.01 | 1276.43 | 1280.78 | 1286.63
288.15 K | 1253.31 | 1256.19 | 1264.58 | 1273.02 | 1277.37 | 1283.21
293.15 K | 1249.88 | 1252.77 | 1261.19 | 1269.61 | 1273.96 | 1279.8
298.15 K | 1246.45 | 1249.35 | 1257.81 | 1266.25 | 1270.6 | 1276.37
303.15 K | 1243.04 | 1245.93 | 1254.43 | 1262.9 | 1267.26 | 1273
308.15 K | 1239.63 | 1242.53 | 1251.04 | 1259.54 | 1263.91 | 1269.64
313.15 K | 1236.25 | 1239.14 | 1247.66 | 1256.17 | 1260.56 | 1266.26
318.15 K | 1232.88 | 1235.77 | 1244.29 | 1252.82 | 1257.21 | 1262.88
323.15 K | 1229.52 | 1232.42 | 1240.94 | 1249.47 | 1253.87 | 1259.51
328.15 K | 1226.18 | 1229.08 | 1237.6 | 1246.13 | 1250.54 | 1256.14
333.15 K | 1222.86 | 1225.74 | 1234.28 | 1242.81 | 1247.23 | 1252.8
338.15 K | 1219.54 | 1222.46 | 1230.97 | 1239.5 | 1243.93 | 1249.49
343.15 K | 1216.24 | 1219.17 | 1227.66 | 1236.2 | 1240.64 | 1246.21

O=C(CO)[C@@H](O)[C@H](O)[C@H](O)CO [D-fructose] + CCOS(=O)(=O)[O-].CCn1cc[n+](C)c1
mass density [kg/m3]
Settings | w1 = 0.069 | w1 = 0.104 | w1 = 0.171 | w1 = 0.248 | w1 = 0.266 | w1 = 0.307
278.15 K | 1265.07 | 1272.55 | 1287.93 | 1306.03 | 1310.46 | 1320.13
283.15 K | 1261.63 | 1269.11 | 1284.51 | 1302.63 | 1307.07 | 1316.76
288.15 K | 1258.21 | 1265.68 | 1281.07 | 1299.21 | – | 1313.36
293.15 K | 1254.78 | 1262.28 | 1277.63 | 1295.77 | 1300.21 | 1309.93
298.15 K | 1251.35 | 1258.88 | 1274.21 | 1292.29 | 1296.72 | 1306.43
303.15 K | 1247.93 | 1255.47 | 1270.78 | 1288.73 | 1293.13 | 1302.82
308.15 K | 1244.5 | 1252.05 | 1267.3 | 1285.14 | 1289.48 | 1299.08
313.15 K | 1241.08 | 1248.62 | 1263.76 | 1281.5 | 1285.81 | 1295.34
318.15 K | 1237.67 | 1245.19 | 1260.19 | 1277.84 | 1282.13 | 1291.62
323.15 K | 1234.25 | 1241.74 | 1256.61 | 1274.19 | 1278.47 | 1287.95
328.15 K | 1230.83 | 1238.29 | 1253.07 | 1270.58 | 1274.85 | 1284.29
333.15 K | 1227.42 | 1234.86 | 1249.57 | 1267.01 | 1271.26 | 1280.66
338.15 K | 1224.03 | 1231.44 | 1246.09 | 1263.46 | 1267.69 | 1277.05
343.15 K | 1220.66 | 1228.04 | 1242.65 | 1259.93 | 1264.14 | 1273.45

OC[C@@H](O)[C@@H](O)[C@H](O)[C@@H](O)CO [D-sorbitol] + CCOS(=O)(=O)[O-].CCn1cc[n+](C)c1
mass density [kg/m3]
Settings | w1 = 0.037 | w1 = 0.056 | w1 = 0.113 | w1 = 0.16 | w1 = 0.182 | w1 = 0.202
278.15 K | 1255.77 | 1258.66 | 1267.3 | 1274.68 | 1278.11 | 1281.13
283.15 K | 1252.33 | 1255.52 | 1263.85 | 1271.21 | 1274.65 | 1277.67
288.15 K | 1248.88 | 1251.77 | 1260.41 | 1267.76 | 1271.19 | 1274.21
293.15 K | 1245.42 | 1248.33 | 1256.99 | 1264.34 | 1267.76 | 1270.77
298.15 K | 1241.97 | 1244.88 | 1253.56 | 1260.93 | 1264.36 | 1267.36
303.15 K | 1238.54 | 1241.45 | 1250.14 | 1257.52 | 1260.96 | 1263.97
308.15 K | 1235.13 | 1238.04 | 1246.73 | 1254.11 | 1257.55 | 1260.56
313.15 K | 1231.74 | 1234.65 | 1243.33 | 1250.71 | 1254.15 | 1257.16
318.15 K | 1228.36 | 1231.27 | 1239.95 | 1247.32 | 1250.77 | 1253.77
323.15 K | 1225 | 1227.91 | 1236.59 | 1243.95 | 1247.4 | 1250.4
328.15 K | 1221.65 | 1224.56 | 1233.25 | 1240.6 | 1244.04 | 1247.03
333.15 K | 1218.32 | 1221.23 | 1229.92 | 1237.26 | 1240.7 | 1243.69
338.15 K | 1215 | 1217.9 | 1226.61 | 1233.93 | 1237.37 | 1240.35
343.15 K | 1211.69 | 1214.59 | 1223.3 | 1230.62 | 1234.06 | 1237.03

OC[C@@H](O)[C@H](O)[C@@H](O)CO [xylitol] + CCOS(=O)(=O)[O-].CCn1cc[n+](C)c1
mass density [kg/m3]
Settings | w1 = 0.05 | w1 = 0.07 | w1 = 0.098 | w1 = 0.131 | w1 = 0.15 | w1 = 0.169
278.15 K | 1256.32 | 1258.74 | 1261.95 | 1267.09 | 1269.01 | 1271.21
283.15 K | 1252.87 | 1255.31 | 1258.5 | 1263.64 | 1265.56 | 1267.75
288.15 K | 1249.41 | 1251.86 | 1255.06 | 1260.2 | 1262.12 | 1264.31
293.15 K | 1245.95 | 1248.4 | 1251.62 | 1256.76 | 1258.69 | 1260.89
298.15 K | 1242.51 | 1244.96 | 1248.2 | 1253.33 | 1255.25 | 1257.46
303.15 K | 1239.07 | 1241.53 | 1244.78 | 1249.9 | 1251.82 | 1254.03
308.15 K | 1235.66 | 1238.11 | 1241.38 | 1246.49 | 1248.41 | 1250.61
313.15 K | 1232.27 | 1234.72 | 1238.01 | 1243.08 | 1245 | 1247.2
318.15 K | 1228.89 | 1231.34 | 1234.65 | 1239.7 | 1241.62 | 1243.81
323.15 K | 1225.53 | 1227.97 | 1231.3 | 1236.33 | 1238.25 | 1240.44
328.15 K | 1222.18 | 1224.62 | 1227.97 | 1232.97 | 1234.89 | 1237.08
333.15 K | 1218.84 | 1221.29 | 1224.64 | 1229.63 | 1231.55 | 1233.73
338.15 K | 1215.52 | 1217.96 | 1221.33 | 1226.3 | – | 1230.39
343.15 K | 1212.21 | 1214.65 | 1218.02 | 1222.98 | – | 1227.06
